The species entered for experiment [1] is Oryctolagus cuniculus. Nature of the experiment: Inhibition of rabbit platelet rich plasma aggregation induced by 500 uM of arachidonic acid. Format: functional.
For experiment [2], the species on record is Rattus norvegicus. Nature of the experiment: Inhibitory activity against rat thoracic aorta contraction induced by 30 nM U-46619. Format: functional.
Experiment [3] is filed under the species Rattus norvegicus. Nature of the experiment: Inhibition of rat washed platelet aggregation induced by 4 ug/mL of collagen. Format: functional.
The species entered for experiment [4] is Homo sapiens. Nature of the experiment: Effect on cyclooxygenase or lipoxygenase derived products (HHT and HETE) in human washed platelets at a dose of 10 uM as percent of radioactivity recovered. It is filed as functional.
The species entered for experiment [5] is Homo sapiens. The experiment can be described thus: Effect on cyclooxygenase or lipoxygenase derived products(HHT and HETE) in human washed platelets at dose of 1 uM expressed as percent of radioactivity recovered. It is filed as functional.
Experiment [6] is filed under the species Homo sapiens. The experiment can be described thus: Effect on the synthesis of metabolites of arachidonic acid in human platelets at a dose of 1 uM. Format: functional.
The species entered for experiment [7] is Homo sapiens. Nature of the experiment: Effect on the synthesis of metabolites of arachidonic acid in human platelets at dose of 10 uM expressed as percent of radioactivity recovered. Format: functional.
Experiment [8] concerns the target T1, Thromboxane-A synthase (Homo sapiens) (UniProt P24557).
T1 sequence (whole entry): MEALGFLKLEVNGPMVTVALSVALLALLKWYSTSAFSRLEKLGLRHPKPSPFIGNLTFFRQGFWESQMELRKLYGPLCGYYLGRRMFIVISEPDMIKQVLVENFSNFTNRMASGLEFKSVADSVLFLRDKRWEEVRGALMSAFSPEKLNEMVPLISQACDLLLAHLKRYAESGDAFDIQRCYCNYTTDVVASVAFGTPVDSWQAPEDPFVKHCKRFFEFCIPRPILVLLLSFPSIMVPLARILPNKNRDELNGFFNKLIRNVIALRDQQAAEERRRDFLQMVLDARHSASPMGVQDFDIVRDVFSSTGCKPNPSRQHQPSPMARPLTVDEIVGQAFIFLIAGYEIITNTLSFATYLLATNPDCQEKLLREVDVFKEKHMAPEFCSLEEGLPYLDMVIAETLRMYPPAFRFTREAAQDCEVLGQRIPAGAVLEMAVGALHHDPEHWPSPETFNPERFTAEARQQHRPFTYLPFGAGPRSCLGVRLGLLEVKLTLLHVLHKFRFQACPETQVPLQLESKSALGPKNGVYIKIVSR
The experiment can be described thus: Inhibition of thromboxane A2 synthetase from human platelets by 10 uM expressed as percent of radioactivity recovered.

The species entered for experiment [9] is Homo sapiens. The experiment can be described thus: Effect on the synthesis of metabolites of arachidonic acid in human platelets. Format: functional.
The species named for experiment [10] is Homo sapiens. The experiment can be described thus: The synthesis of cyclooxygenase or lipoxygenase derived products (HHT and HETE) in human washed platelets at dose of 20 uM. Format: functional, organism-based.
For experiment [11], the species on record is Homo sapiens. The experiment can be described thus: Effect on the synthesis of Thromboxane A2 at dose of 20 uM. It is filed as functional, organism-based.
The species entered for experiment [12] is Homo sapiens. The experiment can be described thus: Effect on the synthesis of Thromboxane A2. Format: functional, organism-based.
The species entered for experiment [13] is Homo sapiens. The experiment can be described thus: The synthesis of cyclooxygenase or lipoxygenase derived products (HHT and HETE) in human washed platelets. It is filed as functional.
Setting [14] is: Rattus norvegicus, Thoracic aorta.

Bounds are passed on as bounds.

As a reminder, the IC50 is the concentration that inhibits the measured activity by half.

`O=C(O)CCC/C=C\C[C@H]1[C@@H]2CCC(C2)[C@@H]1NS(=O)(=O)CCc1ccccc1`: the IC50 in experiment [1] (Oryctolagus cuniculus, Plasma) was found to be 8.2 µM; in experiment [2] (setting [14]), 0.0034 µM; in experiment [3] (Rattus norvegicus), 0.0037 µM.

On to `O=C(O)CCC/C=C\C[C@H]1[C@@H]2CCC(C2)[C@@H]1NS(=O)(=O)c1ccc(F)cc1`, for which the IC50 worked out at 0.6 µM in experiment [1] (Oryctolagus cuniculus, Plasma) and 0.0029 µM in experiment [3] (Rattus norvegicus).

With `O=C(O)CCC/C=C\C[C@H]1[C@@H]2CCC(C2)[C@@H]1NS(=O)(=O)c1ccccc1` (stereo in doubt; 14a) [listing 1 of 2 here], the Recovery in [4] was determined as 23.2%; in experiment [5], 24%; in experiment [6], 14.3%; in experiment [7], 14.2%; in experiment [8], 2.1%.

`O=C(O)CCC/C=C\C[C@H]1[C@@H]2CCC(C2)[C@@H]1NS(=O)(=O)c1ccccc1` (single isomer, unassigned; (+)): the results for the IC50 in [1], in [2] and in [3] were 0.6 µM, 0.00049 µM and 0.0018 µM, respectively.

As to `O=C(O)CCC/C=C\C[C@H]1[C@@H]2CCC(C2)[C@@H]1NS(=O)(=O)c1ccc([N+](=O)[O-])cc1`, the IC50 in experiment [1] (Oryctolagus cuniculus, Plasma) was found to be 1.4 µM; in [3] (Rattus norvegicus), 0.0089 µM.

On to `O=C(O)CCC/C=C\C[C@H]1[C@@H]2CCC(C2)[C@@H]1NS(=O)(=O)c1ccc(O)cc1`, for which the IC50 in experiment [1] (Oryctolagus cuniculus, Plasma) stood at 0.5 µM; in experiment [3] (Rattus norvegicus) it was 0.004 µM.

As to `Cc1cccc(S(=O)(=O)N[C@H]2C3CC[C@H](C3)[C@@H]2C/C=C\CCCC(=O)O)c1`, the IC50 was 1.7 µM in [1] (Oryctolagus cuniculus, Plasma); 0.0032 µM in experiment [2] (setting [14]); 0.0056 µM in experiment [3] (Rattus norvegicus).

Consider `CN(C)c1ccc(S(=O)(=O)N[C@H]2C3CC[C@H](C3)[C@@H]2C/C=C\CCCC(=O)O)cc1`, for which the IC50 in experiment [1] (Oryctolagus cuniculus, Plasma) was 7.1 µM; in experiment [3] (Rattus norvegicus), 0.052 µM.

As to `O=C(O)CCC/C=C\C[C@H]1[C@@H]2CCC(C2)[C@@H]1NS(=O)(=O)CCCc1ccccc1`, the 50% inhibitory concentration (IC50) in [1] (Oryctolagus cuniculus, Plasma) amounted to 14 µM; in [2] (setting [14]), 0.0109 µM; in experiment [3] (Rattus norvegicus), 0.0109 µM.

As for `Cc1ccc(S(=O)(=O)N[C@H]2C3CC[C@H](C3)[C@@H]2C/C=C\CCCC(=O)O)cc1`, the IC50 is 0.5 µM in [1] (Oryctolagus cuniculus, Plasma); 0.0007 µM in experiment [2] (setting [14]); 0.0024 µM in experiment [3] (Rattus norvegicus).

Take `O=C(O)CCC/C=C\C[C@H]1[C@@H]2CCC(C2)[C@@H]1NS(=O)(=O)c1ccccc1` (stereo in doubt; 14a) [listing 2 of 2 here]: the IC50 in [2] was found to be 0.0014 µM; in experiment [3], 0.0029 µM.

As to `O=C(O)CCC/C=C\C[C@H]1[C@@H]2CCC(C2)[C@@H]1NS(=O)(=O)c1cccc2ccccc12`, the IC50 in [1] (Oryctolagus cuniculus, Plasma) is 1.1 µM; in experiment [2] (setting [14]), 0.0027 µM; in [3] (Rattus norvegicus) it was 0.0027 µM.

Turning to `O=C(O)CCC/C=C\C[C@H]1[C@@H]2CCC(C2)[C@@H]1NS(=O)(=O)Cc1ccccc1`, the IC50 in experiment [1] (Oryctolagus cuniculus, Plasma) amounted to 113 µM; in experiment [2] (setting [14]), 0.111 µM; in experiment [3] (Rattus norvegicus) it was 0.026 µM.

For the compound `Cc1ccccc1S(=O)(=O)N[C@H]1C2CC[C@H](C2)[C@@H]1C/C=C\CCCC(=O)O`, the IC50 is 6.2 µM in experiment [1] (Oryctolagus cuniculus, Plasma); 0.0037 µM in [2] (setting [14]); 0.0043 µM in experiment [3] (Rattus norvegicus).

`COc1ccc2c(c1)c(CC(=O)O)c(C)n2C(=O)c1ccc(Cl)cc1`: the Recovery in experiment [9] is 28.4%; in [10], 15%; in [11], 0.34%.

As for `O=C(O)c1ccc(OCCn2ccnc2)cc1`, the Recovery in experiment [12] is 0.74%; in [9] it was 11.8%; in experiment [13], 19.3%.

For `COc1ccc(S(=O)(=O)N[C@H]2C3CC[C@H](C3)[C@@H]2C/C=C\CCCC(=O)O)cc1`, the IC50 was 1.7 µM in experiment [1] (Oryctolagus cuniculus, Plasma) and 0.0039 µM in experiment [3] (Rattus norvegicus).

As to `O=C(O)CCC/C=C\C[C@@H]1[C@H](CNNC(=O)Nc2ccccc2)[C@H]2CC[C@H]1O2`, the IC50 in experiment [1] (Oryctolagus cuniculus, Plasma) came to 9 µM; in experiment [2] (setting [14]), 0.0145 µM; in experiment [3] (Rattus norvegicus), 0.003 µM.

In the case of `CS(=O)(=O)N[C@H]1C2CC[C@H](C2)[C@@H]1C/C=C\CCCC(=O)O`, the IC50 in [1] (Oryctolagus cuniculus, Plasma) turned out to be 640 µM; in experiment [2] (setting [14]), 1.58 µM; in experiment [3] (Rattus norvegicus), 0.37 µM.

With `O=C(O)CCC/C=C\C[C@H]1[C@@H]2CCC(C2)[C@@H]1NS(=O)(=O)c1ccccc1` (single isomer, unassigned; (-)), the IC50 in experiment [1] worked out at 7.4 µM; in experiment [2] it was 0.0153 µM; in experiment [3], 0.0134 µM.

In the case of `CCCCCc1ccc(S(=O)(=O)N[C@H]2C3CC[C@H](C3)[C@@H]2C/C=C\CCCC(=O)O)cc1`, the IC50 amounted to 800 µM in experiment [1] (Oryctolagus cuniculus, Plasma) and 0.0145 µM in experiment [3] (Rattus norvegicus).

Regarding `CCCCCCS(=O)(=O)N[C@H]1C2CC[C@H](C2)[C@@H]1C/C=C\CCCC(=O)O`, the IC50 in experiment [1] (Oryctolagus cuniculus, Plasma) turned out to be 13.3 µM; in [2] (setting [14]), 0.0172 µM; in experiment [3] (Rattus norvegicus), 0.019 µM.

In the case of `O=C(O)CCC/C=C\C[C@H]1[C@@H]2CCC(C2)[C@@H]1NS(=O)(=O)c1ccc(-c2ccccc2)cc1`, the IC50 in experiment [1] (Oryctolagus cuniculus, Plasma) stood at 200 µM; in experiment [2] (setting [14]), 0.0098 µM; in experiment [3] (Rattus norvegicus) it was 0.006 µM.

Turning to `O=C(O)CCC/C=C\C[C@H]1[C@@H]2CCC(C2)[C@@H]1NC(=O)c1ccccc1`, the IC50 is > 800 µM in experiment [1] (Oryctolagus cuniculus, Plasma); 3.41 µM in experiment [2] (setting [14]); 0.45 µM in experiment [3] (Rattus norvegicus).

As for `O=C(O)CCC/C=C\C[C@H]1[C@@H]2CCC(C2)[C@@H]1NS(=O)(=O)c1ccc(C(=O)O)cc1`, the IC50 in experiment [1] (Oryctolagus cuniculus, Plasma) is 800 µM; in [3] (Rattus norvegicus), > 1 µM.

`O=C(O)CCC/C=C\C[C@H]1[C@@H]2CCC(C2)[C@@H]1NS(=O)(=O)c1ccc(Cl)cc1`: the IC50 in experiment [1] (Oryctolagus cuniculus, Plasma) came out at 0.3 µM; in experiment [3] (Rattus norvegicus), 0.0029 µM.

In the case of `CCc1ccc(S(=O)(=O)N[C@H]2C3CC[C@H](C3)[C@@H]2C/C=C\CCCC(=O)O)cc1`, the IC50 came out at 4.6 µM in [1] (Oryctolagus cuniculus, Plasma); 0.0015 µM in experiment [2] (setting [14]); 0.0033 µM in [3] (Rattus norvegicus).

For the origin of these results see ChEMBL document CHEMBL1124211, “Synthesis and in vitro activity of various derivatives of a novel thromboxane receptor antagonist, (+/-)-(5Z)-7-[3-endo-[(phenylsulfonyl)amino]bicyclo[2.2.1] hept-2-exo-yl]heptenoic acid” (J Med Chem, 1988).
